The results in this text go back to patent US20080200454A1, “CARBON-LINKED TETRAHYDRO-PYRAZOLO-PYRIDINE MODULATORS OF CATHEPSIN S” (priority 2007, published 2008).

Like-named read-outs stand apart in the source and are kept apart here.

The test addresses Recombinant human cathepsin S (CatS) (Homo sapiens, UniProt P25774). As to the kind of experiment: Recombinant human cathepsin S (CatS) inhibition assay, fluorogenic substrate Z-Valine-Valine-Arginine-AMC.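 Note: Baculovirus-expressed CatS in pH 5.0 sodium acetate buffer with DTT and NaCl, fluorescence read each minute over 20 min, inhibition derived from rate slope.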

Recombinant human cathepsin S (CatS), sequence (P25774 115-331): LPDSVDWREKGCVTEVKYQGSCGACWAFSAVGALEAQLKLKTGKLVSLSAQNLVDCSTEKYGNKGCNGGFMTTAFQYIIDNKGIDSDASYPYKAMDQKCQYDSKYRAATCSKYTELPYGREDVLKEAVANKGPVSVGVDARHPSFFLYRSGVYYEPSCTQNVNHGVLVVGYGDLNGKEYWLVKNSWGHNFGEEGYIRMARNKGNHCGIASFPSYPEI

For the compound `Cc1ccccc1CNCc1ccc(C#Cc2cc(-c3nn(CCCN4CCSCC4)c4c3CN(C(N)=O)CC4)ccc2Cl)cc1` [Example 532, 3-(4-Chloro-3-{[4-({[(2-methylphenyl)methyl]amino}methyl)phenyl]ethynyl}phenyl)-1-(3-thiomorpholin-4-ylpropyl)-1,4,6,7-tetrahydro-5H-pyrazolo[4,3-c]pyridine-5-carboxamide], the IC50 (CatS IC50) came out at 0.09 µM.

For the compound `O=C(CO)N1CCc2c(c(-c3ccc(Cl)c(C#Cc4ccc(CNCc5ccc(Cl)cc5)cc4)c3)nn2CCCN2CCSCC2)C1` [Example 413, 2-[3-(4-Chloro-3-{[4-({[(4-chlorophenyl)methyl]amino}methyl)phenyl]ethynyl}phenyl)-1-(3-thiomorpholin-4-ylpropyl)-1,4,6,7-tetrahydro-5H-pyrazolo[4,3-c]pyridin-5-yl]-2-oxoethanol], the IC50 (CatS IC50) is 0.1 µM.

In the case of `CS(=O)(=O)N1CCc2c(c(-c3ccc(Cl)c(C#Cc4ccc(C(=O)NC[C@@H]5CCCN5)cc4)c3)nn2CCCN2CCCCC2)C1` [Example 611, 4-({2-Chloro-5-[5-(methylsulfonyl)-1-(3-piperidin-1-ylpropyl)-4,5,6,7-tetrahydro-1H-pyrazolo[4,3-c]pyridin-3-yl]phenyl}ethynyl)-N-[(2S)-pyrrolidin-2-ylmethyl]benzamide], the IC50 (CatS IC50) amounted to 0.1 µM.

Consider `CS(=O)(=O)N1CCc2c(c(-c3ccc(Cl)c(C#Cc4ccc5c(c4)CNCCC5)c3)nn2CCCN2CCOCC2)C1` [Example 489, 8-({2-Chloro-5-[5-(methylsulfonyl)-1-(3-morpholin-4-ylpropyl)-4,5,6,7-tetrahydro-1H-pyrazolo[4,3-c]pyridin-3-yl]phenyl}ethynyl)-2,3,4,5-tetrahydro-1H-2-benzazepine], for which the concentration for half-maximal inhibition (IC50) (CatS IC50) is 0.48 µM.

Take `CS(=O)(=O)N1CCc2c(c(-c3ccc(Cl)c(CCCO)c3)nn2CCCN2CCOCC2)C1` [Example 302, 3-{2-Chloro-5-[5-(methylsulfonyl)-1-(3-morpholin-4-ylpropyl)-4,5,6,7-tetrahydro-1H-pyrazolo[4,3-c]pyridin-3-yl]phenyl}propan-1-ol]: the concentration for half-maximal inhibition (IC50) was 11.5 µM.

Turning to `CS(=O)(=O)N1CCc2c(c(-c3ccc(Cl)c(C#Cc4ccc(Cl)cc4)c3)nn2CC(O)CN2CCC(N)CC2)C1` (centres unmarked) [Example 133, 1-(4-Amino-piperidin-1-yl)-3-{3-[4-chloro-3-(4-chloro-phenylethynyl)-phenyl]-5-methanesulfonyl-4,5,6,7-tetrahydro-pyrazolo[4,3-c]pyridin-1-yl}-propan-2-ol], the concentration for half-maximal inhibition (IC50) was found to be 0.29 µM.

`CC(=O)NCCCc1cc(-c2nn(CCCN3CCOCC3)c3c2CN(S(C)(=O)=O)CC3)ccc1Cl` [Example 87, N-(3-{2-Chloro-5-[5-methanesulfonyl-1-(3-morpholin-4-yl-propyl)-4,5,6,7-tetrahydro-1H-pyrazolo[4,3-c]pyridin-3-yl]-phenyl}-propyl)-acetamide]: the half-maximal inhibitory concentration (IC50) was 11.4 µM.

Regarding `CN(Cc1ccccc1)Cc1cccc(C#Cc2cc(-c3nn(CCCN4CCOCC4)c4c3CN(S(C)(=O)=O)CC4)ccc2Cl)c1` [Example 528, 1-[3-({2-Chloro-5-[5-(methylsulfonyl)-1-(3-morpholin-4-ylpropyl)-4,5,6,7-tetrahydro-1H-pyrazolo[4,3-c]pyridin-3-yl]phenyl}ethynyl)phenyl]-N-methyl-N-(phenylmethyl)methanamine], for the setting “CatS IC50”, the half-inhibitory concentration (IC50) is 0.58 µM.

As to `NC(=O)C(=O)N1CCc2c(c(-c3ccc(Cl)c(C#Cc4ccc(Cl)c(C(=O)NCCN5CCOCC5)c4)c3)nn2CCCN2CCCCC2)C1` [Example 591, 5-[(5-{5-[Amino(oxo)acetyl]-1-(3-piperidin-1-ylpropyl)-4,5,6,7-tetrahydro-1H-pyrazolo[4,3-c]pyridin-3-yl}-2-chlorophenyl)ethynyl]-2-chloro-N-(2-morpholin-4-ylethyl)benzamide], the IC50 (CatS IC50) was 0.03 µM.

As for `CS(=O)(=O)N1CCc2c(c(-c3ccc(Cl)c(CCCN)c3)nn2CCCN2CCOCC2)C1` [Example 304, 3-{2-Chloro-5-[5-(methylsulfonyl)-1-(3-morpholin-4-ylpropyl)-4,5,6,7-tetrahydro-1H-pyrazolo[4,3-c]pyridin-3-yl]phenyl}propan-1-amine], the IC50 was determined as 17 µM.

`CC(C)(C)OC(=O)NC1CCN(CC(O)Cn2nc(-c3ccc(Cl)c(C#Cc4ccc(Cl)cc4)c3)c3c2CCN(S(C)(=O)=O)C3)CC1` (centres unmarked) [Example 130, [1-(3-{3-[4-Chloro-3-(4-chloro-phenylethynyl)-phenyl]-5-methanesulfonyl-4,5,6,7-tetrahydro-pyrazolo[4,3-c]pyridin-1-yl}-2-hydroxy-propyl)-piperidin-4-yl]-carbamic acid tert-butyl ester]: the half-maximal inhibitory concentration (IC50) was found to be 0.08 µM.

Regarding `CS(=O)(=O)N1CCc2c(c(-c3ccc(Cl)c(C#Cc4ccc(CNCCc5cccs5)cc4)c3)nn2CCCN2CCOCC2)C1` [Example 423, N-{[4-({2-Chloro-5-[5-(methylsulfonyl)-1-(3-morpholin-4-ylpropyl)-4,5,6,7-tetrahydro-1H-pyrazolo[4,3-c]pyridin-3-yl]phenyl}ethynyl)phenyl]methyl}-2-(2-thienyl)ethanamine], the concentration for half-maximal inhibition (IC50) (CatS IC50) amounted to 0.27 µM.

With `CNC(=O)N1CCc2c(c(-c3ccc(Cl)c(C#Cc4ccc(CNCc5ccc(Cl)cc5)cc4)c3)nn2CCCN2CCOCC2)C1` [Example 155, 3-(4-Chloro-3-{[4-({[(4-chlorophenyl)methyl]amino}methyl)phenyl]ethynyl}phenyl)-N-methyl-1-(3-morpholin-4-ylpropyl)-1,4,6,7-tetrahydro-5H-pyrazolo[4,3-c]pyridine-5-carboxamide], the IC50 worked out at 0.79 µM.

For `CC(=O)N1CCN(CCCn2nc(-c3ccc(Cl)c(C#Cc4ccc(CNCc5ccc(Cl)cc5)cc4)c3)c3c2CCN(S(C)(=O)=O)C3)CC1` [Example 353, 1-{4-[(5-{1-[3-(4-Acetylpiperazin-1-yl)propyl]-5-(methylsulfonyl)-4,5,6,7-tetrahydro-1H-pyrazolo[4,3-c]pyridin-3-yl}-2-chlorophenyl)ethynyl]phenyl}-N-[(4-chlorophenyl)methyl]methanamine], the IC50 (CatS IC50) stood at 0.15 µM.

`NC(=O)N1CCc2c(c(-c3ccc(Cl)c(C#Cc4cccc(CNCc5ccccc5F)c4)c3)nn2CCCN2CCSCC2)C1` [Example 515, 3-(4-Chloro-3-{[3-({[(2-fluorophenyl)methyl]amino}methyl)phenyl]ethynyl}phenyl)-1-(3-thiomorpholin-4-ylpropyl)-1,4,6,7-tetrahydro-5H-pyrazolo[4,3-c]pyridine-5-carboxamide]: where the note is “CatS IC50”, the 50% inhibitory concentration (IC50) turned out to be 0.25 µM.

For `NC(=O)N1CCc2c(c(-c3ccc(Cl)c(C#Cc4ccc(CNCc5cccc(Cl)c5)cc4)c3)nn2CCCN2CCSCC2)C1` [Example 487, 3-(4-Chloro-3-{[4-({[(3-chlorophenyl)methyl]amino}methyl)phenyl]ethynyl}phenyl)-1-(3-thiomorpholin-4-ylpropyl)-1,4,6,7-tetrahydro-5H-pyrazolo[4,3-c]pyridine-5-carboxamide], the concentration for half-maximal inhibition (IC50) (CatS IC50) came out at 0.06 µM.

As to `CS(=O)(=O)N1CCc2c(c(-c3ccc(Cl)c(C#Cc4cccc(CC#N)c4)c3)nn2CCCN2CCOCC2)C1` [Example 4, (3-{2-Chloro-5-[5-methanesulfonyl-1-(3-morpholin-4-yl-propyl)-4,5,6,7-tetrahydro-1H-pyrazolo[4,3-c]pyridin-3-yl]-phenylethynyl}-phenyl)-acetonitrile], the 50% inhibitory concentration (IC50) was 0.75 µM.

On to `C[C@H]1COCCN1CCCn1nc(-c2ccc(Cl)c(C#Cc3ccc4c(c3)CN(CC(F)(F)F)CC4)c2)c2c1CCN(S(C)(=O)=O)C2` [Example 501, 7-({2-Chloro-5-[1-{3-[(3S)-3-methylmorpholin-4-yl]propyl}-5-(methylsulfonyl)-4,5,6,7-tetrahydro-1H-pyrazolo[4,3-c]pyridin-3-yl]phenyl}ethynyl)-2-(2,2,2-trifluoroethyl)-1,2,3,4-tetrahydroisoquinoline], for which the concentration for half-maximal inhibition (IC50) (CatS IC50) was 0.75 µM.

On to `CS(=O)(=O)N1CCc2c(c(-c3ccc(Cl)c(C#Cc4ccc(CNS(=O)(=O)c5ccccc5)cc4)c3)nn2CCCN2CCOCC2)C1` [Example 71, N-(4-{2-Chloro-5-[5-methanesulfonyl-1-(3-morpholin-4-yl-propyl)-4,5,6,7-tetrahydro-1H-pyrazolo[4,3-c]pyridin-3-yl]-phenylethynyl}-benzyl)-benzenesulfonamide], for which the IC50 came out at 0.17 µM.

With `CS(=O)(=O)N1CCc2c(c(-c3ccc(Cl)c(C#Cc4ccc(Cl)cc4)c3)nn2C[C@@H](O)CN2CCC(C3CCNCC3)CC2)C1` [Example 448, (2S)-1-(4,4′-Bipiperidin-1-yl)-3-[3-{4-chloro-3-[(4-chlorophenyl)ethynyl]phenyl}-5-(methylsulfonyl)-4,5,6,7-tetrahydro-1H-pyrazolo[4,3-c]pyridin-1-yl]propan-2-ol], the IC50 is 0.01 µM.

Consider `CS(=O)(=O)N1CCc2c(c(-c3ccc(Cl)c(C#Cc4ccc(CNCc5ccc(Cl)cc5)cc4)c3)nn2CCCN2CCN(C3CC3)CC2)C1` [Example 388, 1-{4-[(2-Chloro-5-{1-[3-(4-cyclopropylpiperazin-1-yl)propyl]-5-(methylsulfonyl)-4,5,6,7-tetrahydro-1H-pyrazolo[4,3-c]pyridin-3-yl}phenyl)ethynyl]phenyl}-N-[(4-chlorophenyl)methyl]methanamine], for which, under “CatS IC50”, the IC50 worked out at 0.06 µM.

As to `NC(=O)C(=O)N1CCc2c(c(-c3ccc(Cl)c(C#Cc4ccc(CNCc5ccc(Cl)cc5)cc4)c3)nn2CCCN2CCN(c3ccccc3)CC2)C1` [Example 429, 2-{3-(4-Chloro-3-{[4-({[(4-chlorophenyl)methyl]amino}methyl)phenyl]ethynyl}phenyl)-1-[3-(4-phenylpiperazin-1-yl)propyl]-1,4,6,7-tetrahydro-5H-pyrazolo[4,3-c]pyridin-5-yl}-2-oxoacetamide], the IC50 was found to be 0.02 µM.

In the case of `NC(=O)C(=O)N1CCc2c(c(-c3ccc(Cl)c(C#Cc4ccc(Cl)c(C(=O)NCC5CCCNC5)c4)c3)nn2CCCN2CCSCC2)C1` (centres unmarked) [Example 579, 5-[(5-{5-[Amino(oxo)acetyl]-1-(3-thiomorpholin-4-ylpropyl)-4,5,6,7-tetrahydro-1H-pyrazolo[4,3-c]pyridin-3-yl}-2-chlorophenyl)ethynyl]-2-chloro-N-(piperidin-3-ylmethyl)benzamide], the concentration for half-maximal inhibition (IC50) turned out to be 0.02 µM.
